Earlier results on one compound are cited in patent US20050261335A1, “Carvedilol formulations” (priority 2002, published 2005).

Read-outs that look alike come from different tables or passages of the source.

As a reminder, the solubility is the concentration that dissolves in the medium under given conditions. On to `COc1ccccc1OCCNCC(O)COc1cccc2[nH]c3ccccc3c12` (racemic) [Carvedilol], for which, where the note is “above pH 9.0”, the solubility is less than 1 µg/mL. The saturation solubility by setting is: (pH 5, room temperature) approximately 100 µg/mL; (pH 7, room temperature) approximately 23 µg/mL.
